Measurements as given in BindingDB's records for doi:10.7270/Q2VQ314Z (Burnham Center For Chemical Genomics, 2010).

Molecular target: T1, Tyrosine-protein phosphatase non-receptor type 7 (Homo sapiens, UniProt P35236)
T1 sequence (P35236 whole entry): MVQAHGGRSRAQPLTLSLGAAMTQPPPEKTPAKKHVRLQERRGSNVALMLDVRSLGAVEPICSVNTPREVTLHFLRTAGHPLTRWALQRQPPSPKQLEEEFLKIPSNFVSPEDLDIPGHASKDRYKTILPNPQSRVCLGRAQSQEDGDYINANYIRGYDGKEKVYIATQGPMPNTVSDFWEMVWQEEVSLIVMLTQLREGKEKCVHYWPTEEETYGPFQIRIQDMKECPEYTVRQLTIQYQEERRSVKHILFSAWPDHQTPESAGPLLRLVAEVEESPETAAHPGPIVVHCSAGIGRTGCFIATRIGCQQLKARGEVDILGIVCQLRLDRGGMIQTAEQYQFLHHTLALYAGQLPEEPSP
Test: HePTP phosphatase inhibitors, dose response, biochemical, fluorescence, OMFP substrate, HTS hits, set 2 (AID 435032)

SMILES	IC50
O=C1C([N+](=O)[O-])=CC(Br)=CC1/C=N/n1cnnc1 (stereo not given) [MLS000714804]	> 79.4 µM
Cc1ccc(NN=C2C(=O)N(CN3CCOCC3)c3ccccc32)cc1 [(3Z)-3-[(4-methylphenyl)hydrazinylidene]-1-(4-morpholinylmethyl)-2-indolone]	> 79.4 µM
N=C(NN=Cc1ccc2c(c1)OCO2)Sc1cc(O)n(-c2ccc(C(=O)O)cc2)c1O [4-(3-{[[(2E)-2-(1,3-benzodioxol-5-ylmethylene)hydrazino](imino)methyl]thio}-2,5-dioxopyrrolidin-1-yl)benzoic acid]	7.33 µM
CCOC(=O)NC(=O)C(C=Nc1ccc(C)cc1)C(=O)NC(=O)OCC [ethyl 2-{[(ethoxycarbonyl)amino]carbonyl}-3-(4-toluidino)acryloylcarbamate]	> 79.4 µM
COC1=CC=CC(/C=N/NC(=O)c2cc3cc([N+](=O)[O-])ccc3s2)C1=O (stereo not given) [SMR000237814]	14.9 µM
